Measurements: patent publication US20160257697A1, “THIOPHENE-SUBSTITUTED TETRACYCLIC COMPOUNDS AND METHODS OFUSE THEREOF FOR THE TREATMENT OF VIRAL DISEASES” (priority 2013, published 2016)
Read-outs that look alike come from different tables or passages of the source.

Assays:
Assay in all cases: microbe, parasite or virus in culture
Type in all cases: cell-based, Hepatitis C virus (HCV)
Conditions in all cases: Replicon Assay A
HCV replicon 2B = test system: HCV replicon 2B
Summary of the method: (§1)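 Read-out is replicon RNA per cell by real-time RT-PCR, normalised to cyclophilin mRNA amplified in the same well. Cells were exposed to compound for 3 days at 2000 cells/well in medium with 5% fetal bovine serum and 0.5% DMSO.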

HCV replicon 1A = test system: HCV replicon 1A
Summary of the method: as §1

HCV replicon 1AY93H = test system: HCV replicon 1AY93H
Summary of the method: as §1

[1] = read-out: 2B IC50, HCV replicon 2B
[2] = read-out: 1A Y93H IC50, HCV replicon 1A Y93H
[3] = read-out: 1A Y93H IC50, replicon 1AY93H
[4] = Hepatitis C virus, HCV replicon 1A
[5] = Hepatitis C virus, read-out: 2B IC50, HCV replicon 2B
[6] = Hepatitis C virus, read-out: 1A Y93H IC50, HCV replicon 1A Y93H
[7] = Hepatitis C virus, read-out: 1A Y93H IC50 (nM), replicon 1AY93H

| Compound | IC50 (HCV replicon 2B; [1]) | IC50 (HCV replicon 1A; HCV replicon 1A) | IC50 (HCV replicon 1AY93H; [2]) | IC50 (HCV replicon 2B; read-out: 2B IC50, replicon 2B) | IC50 (HCV replicon 1A; replicon 1A) | IC50 (HCV replicon 1AY93H; [3]) | further results |
| --- | --- | --- | --- | --- | --- | --- | --- |
| COC(=O)NC(C(=O)N1CCC[C@H]1c1ncc(-c2ccc3c(c2)cc2n3C(c3cc4ccccc4s3)Oc3cc(-c4cnc([C@@H]5CCCN5C(=O)[C@@H](NC(=O)OC)C(C)C)[nH]4)cc(F)c3-2)[nH]1)C1C[C@@H](C)O[C@@H](C)C1 (single isomer, unassigned) [Compound 642] | 0.199 nM | 0.0019 nM | 0.066 nM |  |  |  |  |
| COC(=O)N[C@H](C(=O)N1C[C@H](F)C[C@H]1c1nc(-c2ccc3c(c2)OC(c2ccc(C)s2)n2c-3cc3cc(-c4c[nH]c([C@@H]5C[C@H]6C[C@H]6N5C(=O)[C@@H](NC(=O)OC)C5CCOCC5)n4)ccc32)c[nH]1)C1CCOCC1 (single isomer, unassigned) [Compound 731] | 0.021 nM | 0.024 nM | 0.026 nM |  |  |  |  |
| COC(=O)NC(C(=O)N1[C@@H]2C[C@@H]2C[C@H]1c1ncc(-c2ccc3c(c2)c(F)c2n3C(c3ccc(C4CC4)s3)Oc3cc(-c4cnc([C@@H]5CCCN5C(=O)[C@@H](NC(=O)OC)C(C)C)[nH]4)ccc3-2)[nH]1)C1C[C@@H](C)O[C@@H](C)C1 (single isomer, unassigned) [Compound 643] | 0.323 nM | 0.0012 nM | 0.179 nM |  |  |  |  |
| CCc1ccc(C2Oc3cc(-c4cnc([C@@H]5CCCN5C(=O)[C@@H](NC(=O)OC)C(C)C)[nH]4)cc(F)c3-c3cc4cc(-c5cnc([C@@H]6CCCN6C(=O)C(NC(=O)OC)C6C[C@@H](C)O[C@@H](C)C6)[nH]5)ccc4n32)s1 (single isomer, unassigned) [Compound 145] |  |  |  | 1.62 nM | 0.0022 nM | 5.22 nM |  |
| COC(=O)N[C@H](C(=O)N1CCC[C@H]1c1ncc(-c2cc(F)c3c(c2)OC(c2cc4c(s2)CCC4)n2c-3cc3cc(-c4cnc([C@@H]5CCCN5C(=O)[C@@H](NC(=O)OC)C5CCOCC5)[nH]4)ccc32)[nH]1)C(C)C (single isomer, unassigned) [Compound 621] | 0.835 nM | 0.0031 nM | 0.108 nM |  |  |  |  |
| COC(=O)NC(C(=O)N1CCC[C@H]1c1ncc(-c2ccc3c(c2)cc2n3C(c3ccc(C4CC4)s3)Oc3cc(-c4cnc([C@@H]5CCCN5C(=O)[C@@H](NC(=O)OC)C(C)C)[nH]4)cc(F)c3-2)[nH]1)C1CCO[C@H](C)C1 (single isomer, unassigned) [Compound 141] |  |  |  | 21.4 nM | 0.0584 nM | 12.8 nM |  |
| COC(=O)NC(C(=O)N1CCC[C@H]1c1ncc(-c2ccc3c(c2)cc2n3C(c3ccc(C(C)C)s3)Oc3cc(-c4cnc([C@@H]5CCCN5C(=O)[C@@H](NC(=O)OC)C(C)C)[nH]4)cc(F)c3-2)[nH]1)C1CCOC(C)(C)C1 (single isomer, unassigned) [Compound 239] |  |  |  | 9.48 nM | 0.0982 nM | 6.6 nM |  |
| CCc1ccc(C2Oc3cc(-c4cnc([C@@H]5CCCN5C(=O)[C@@H](NC(=O)OC)C(C)C)[nH]4)ccc3-c3c(F)c4cc(-c5cnc([C@@H]6CCCN6C(=O)C(NC(=O)OC)C6C[C@@H](C)O[C@@H](C)C6)[nH]5)ccc4n32)s1 (single isomer, unassigned) [Compound 633] | 0.311 nM |  | 0.306 nM |  |  |  | IC50 (HCV replicon 1A; [4]): 0.0013 nM |
| COC(=O)N[C@H](C(=O)N1CCC[C@H]1c1ncc(-c2cc(C)c3c(c2)OC(c2cc(C)c(C)s2)n2c-3cc3cc(-c4cnc([C@@H]5CCCN5C(=O)[C@@H](NC(=O)OC)C(C)C)[nH]4)ccc32)[nH]1)C(C)C (single isomer, unassigned) [Compound 16] |  |  |  | 0.171 nM | 0.0024 nM | 0.49 nM |  |
| COC(=O)N[C@H](C(=O)N1C[C@H](F)C[C@H]1c1nc(-c2ccc3c(c2)cc2n3C(c3cc(C)c(C)s3)Oc3cc(-c4cnc([C@@H]5C[C@@H](F)CN5C(=O)[C@@H](NC(=O)OC)C(C)C)[nH]4)ccc3-2)c[nH]1)C(C)C (mixture of isomers) [Compound 711] |  |  |  |  |  |  | IC50 (HCV replicon 2B; [5]): 0.029 nM; IC50 (HCV replicon 1A; [4]): 0.027 nM; IC50 (HCV replicon 1AY93H; [6]): 0.12 nM |
| COC(=O)N[C@H](C(=O)N1CCC[C@H]1c1ncc(-c2cc(F)c3c(c2)OC(c2sc(C4CC4)cc2C)n2c-3cc3cc(-c4cnc([C@@H]5CCCN5C(=O)[C@@H](NC(=O)OC)C(C)C)[nH]4)ccc32)[nH]1)C(C)C (single isomer, unassigned) [Compound 329] |  |  |  | 0.605 nM | 0.0012 nM | 0.937 nM |  |
| COC(=O)NC(C(=O)N1[C@@H]2C[C@@H]2C[C@H]1c1ncc(-c2ccc3c(c2)c(F)c2n3C(c3ccc(C4CC4)s3)Oc3cc(-c4cnc([C@@H]5CCCN5C(=O)[C@@H](NC(=O)OC)C(C)C)[nH]4)cc(F)c3-2)[nH]1)C1CCOC(C)(C)C1 (single isomer, unassigned) [Compound 423] | 0.0096 nM | 0.0021 nM | 0.0042 nM |  |  |  |  |
| COC(=O)N[C@H](C(=O)N1CCC[C@H]1c1ncc(-c2cc(F)c3c(c2)OC(c2ccc(C(F)(F)F)s2)n2c-3cc3cc(-c4cnc([C@@H]5CCCN5C(=O)[C@@H](NC(=O)OC)C5CCOCC5)[nH]4)ccc32)[nH]1)C(C)C (single isomer, unassigned) [Compound 655] | 0.24 nM | 0.0016 nM | 0.278 nM |  |  |  |  |
| COC(=O)NC(C(=O)N1CCC[C@H]1c1ncc(-c2ccc3c(c2)cc2n3C(c3ccc(C4CC4)s3)Oc3cc(-c4cnc([C@@H]5CCCN5C(=O)[C@@H](NC(=O)OC)C5CCOCC5)[nH]4)cc(F)c3-2)[nH]1)C(C)(C)F (single isomer, unassigned) [Compound 175] |  |  |  | 10.5 nM | 0.0077 nM | 9.03 nM |  |
| COC(=O)N[C@H](C(=O)N1CCC[C@H]1c1nc(-c2ccc3c(c2)OC(c2ccc(C)s2)n2c-3cc3cc(-c4c[nH]c([C@@H]5NCCN5C(=O)[C@@H](NC(=O)OC)C(C)C)n4)ccc32)c[nH]1)C(C)C (single isomer, unassigned) [Compound 700] | 0.39 nM | 0.015 nM | 1.17 nM |  |  |  |  |
| COC(=O)NC(C(=O)N1CCC[C@H]1c1ncc(-c2ccc3c(c2)cc2n3C(c3ccc(C4CC4)s3)Oc3cc(-c4cnc([C@@H]5CCCN5C(=O)[C@@H](NC(=O)OC)C(C)C)[nH]4)cc(F)c3-2)[nH]1)C1CCO[C@@H](C)C1 (single isomer, unassigned) [Compound 354] |  |  |  | 0.602 nM |  | 0.38 nM | IC50 (HCV replicon 1A; Hepatitis C virus, replicon 1A): 0.002 nM |
| COC(=O)NC(C(=O)N1CCC[C@H]1c1ncc(-c2ccc3c(c2)cc2n3C(c3ccc(C4CC4)s3)Oc3cc(-c4cnc([C@@H]5C[C@@H](F)CN5C(=O)[C@@H](NC(=O)OC)C(C)C)[nH]4)cc(F)c3-2)[nH]1)C(C)(C)F (single isomer, unassigned) [Compound 115] |  |  |  | 9.84 nM | 0.0011 nM | 0.05 nM |  |
| COCc1ccc(C2Oc3cc(-c4cnc([C@@H]5CCCN5C(=O)[C@@H](NC(=O)OC)C(C)C)[nH]4)cc(F)c3-c3cc4cc(-c5cnc([C@@H]6CCCN6C(=O)[C@@H](NC(=O)OC)[C@@H]6C[C@@H](C)O[C@@H](C)C6)[nH]5)ccc4n32)s1 (single isomer, unassigned) [Compound 535] | 0.0736 nM | 0.00895 nM | 0.0295 nM |  |  |  |  |
| COC(=O)N[C@H](C(=O)C1NCC[C@H]1c1ncc(-c2ccc3c(c2)OC(c2ccc(C4CC4)s2)n2c-3cc3cc(-c4c[nH]c([C@@H]5C[C@H]6C[C@H]6N5C(=O)[C@@H](NC(=O)OC)C(C)C)n4)ccc32)[nH]1)C(C)C (mixture of isomers) [Compound 504] |  |  |  |  |  |  | IC50 (HCV replicon 2B; [5]): 1.52 nM; IC50 (HCV replicon 1A; [4]): 0.0167 nM; IC50 (HCV replicon 1AY93H; [6]): 0.245 nM |
| COC(=O)NC(C(=O)N1CCC[C@H]1c1ncc(-c2cc(F)c3c(c2)OC(c2ccc(C4CC4)s2)n2c-3cc3cc(-c4cnc([C@@H]5CCCN5C(=O)[C@@H](NC(=O)OC)C(C)C)[nH]4)ccc32)[nH]1)C1CCOC(C)(C)C1 (single isomer, unassigned) [Compound 210] |  |  |  | 0.33 nM | 0.0018 nM | 0.52 nM |  |
| CCc1ccc(C2Oc3cc(-c4cnc([C@@H]5CCCN5C(=O)C(NC(=O)OC)C5CCOC(C)(C)C5)[nH]4)cc(F)c3-c3cc4cc(-c5cnc([C@@H]6CCCN6C(=O)C(NC(=O)OC)C6CCOC(C)(C)C6)[nH]5)ccc4n32)s1 (single isomer, unassigned) [Compound 292] |  |  |  | 0.106 nM | 0.0027 nM | 0.044 nM |  |
| COC(=O)NC(C(=O)N1CCC[C@H]1c1ncc(-c2ccc3c(c2)cc2n3C(c3cc4c(s3)CCC4)Oc3cc(-c4cnc([C@@H]5CCCN5C(=O)[C@@H](NC(=O)OC)C(C)C)[nH]4)cc(F)c3-2)[nH]1)C1CCOC(C)(C)C1 (single isomer, unassigned) [Compound 405] |  |  |  |  |  |  | IC50 (HCV replicon 2B; Hepatitis C virus, read-out: 2B IC50 (nM), replicon 2B): 0.0042 nM; IC50 (HCV replicon 1A; Hepatitis C virus, replicon 1A): 0.0023 nM; IC50 (HCV replicon 1AY93H; [7]): 0.0133 nM |
| CCc1ccc(C2Oc3cc(-c4cnc([C@@H]5CCCN5C(=O)C(NC(=O)OC)C5CCOC(C)(C)C5)[nH]4)cc(F)c3-c3cc4cc(-c5cnc([C@@H]6CCCN6C(=O)C(NC(=O)OC)C6CCOC(C)(C)C6)[nH]5)ccc4n32)s1 (single isomer, unassigned) [Compound 298] |  |  |  | 2.09 nM | 0.0784 nM | 1.22 nM |  |
| COC(=O)N[C@H](C(=O)N1CCC[C@H]1c1ncc(-c2ccc3c(c2)OC(c2cc4ccccc4s2)n2c-3cc3cc(-c4cnc([C@@H]5C[C@@H](F)CN5C(=O)[C@@H](NC(=O)OC)C5CCOCC5)[nH]4)ccc32)[nH]1)C(C)C (single isomer, unassigned) [Compound 627] | 0.631 nM | 0.00302 nM | 0.0157 nM |  |  |  |  |
| COC(=O)N[C@H](C(=O)N1CCC[C@H]1c1ncc(-c2cc(F)c3c(c2)OC(c2ccc(C(CF)CF)s2)n2c-3cc3cc(-c4cnc([C@@H]5CCCN5C(=O)[C@@H](NC(=O)OC)C(C)C)[nH]4)ccc32)[nH]1)C(C)C (single isomer, unassigned) [Compound 120] |  |  |  | 1.44 nM |  |  | IC50 (HCV replicon 1A; Hepatitis C virus, replicon 1A): 0.0015 nM; IC50 (HCV replicon 1AY93H; [7]): 0.1 nM |
